PMC8279981, “A first-in-human, phase 1 study of the NEDD8 activating enzyme E1 inhibitor TAS4464 in patients with advanced solid tumors” (Investigational New Drugs, 2021)

Columns and labels:
[1] = test system: 10 cytokines in peripheral blood; assay: Cytokines in peripheral blood (Luminex); type: in vivo, human
Method: (§1) Assessment of pharmacodynamics included evaluation of cullin-NEDD8, p27^Kip1 protein expression, and cytokines in peripheral blood samples. Expression of cullin-NEDD8 protein in peripheral blood mononuclear cells (PBMC) was analyzed using an enzyme-linked immunosorbent assay (ELISA). For the weekly dosing cohorts, changes from baseline in cullin-NEDD8 complexes in the PBMC on Day 1 and Day 2 of Cycle 1 as measured by ELISA were evaluated. For the weekly dosing with lead-in period cohorts, changes from baseline in cullin-NEDD8 complexes on Day 2 were evaluated. Expression of p27^Kip1 protein (cyclin-dependent kinase inhibitor 1B), a substrate of CRL, was determined by immunohistochemistry (IHC). p27^Kip1 IHC was performed on biopsy tumor specimens collected at baseline and Day 2 of Cycle 1, and their staining intensities were assessed using H-Scoring, with the scores compared between baseline and Day 2 of Cycle 1. […]

NAE = conditions: compared with MLN4924; cited from earlier work
[2] = parameters: method as in unpublished data; conditions: TAS4464 combined with TNF-α; ref unpublished data; cited from earlier work
[3] = test system: nuclear factor κB (NFκB) activation; parameters: method as in PMID 31583781; conditions: multiple myeloma models; cited from earlier work
[4] = test system: cullin-NEDD8 complexes in PBMC; assay: Cullin-NEDD8 protein in PBMC by ELISA; type: in vivo, human
Method: as §1

OATP1B1 = assay: Pharmacogenomics: SLCO1B1 polymorphisms versus PK; type: in vivo, human; conditions: phenotype assigned by SLCO1B1 genotypes; data not shown
Method: The PK endpoints included maximum plasma concentration (Cmax), area under the concentration–time curve from time zero up to the last observable concentration (AUC0-last) and plasma accumulation of TAS4464 after multiple doses. PK parameters were evaluated on Day 1 of Cycle 1 and Day 15 of Cycle 1 in the weekly dosing cohort, as well as on Day 1 of the lead-in period and Day 1 of Cycle 1 in the weekly with lead-in dosing cohort. The evaluation of the relationship between solute carrier organic anion transporter family member 1B1 (SLCO1B1) genetic polymorphisms and PK (i.e., the mean and individual clearance [CL] and volume of distribution at steady-state [Vdss] by each OATP1B1 phenotype) was assessed as the PGx analysis endpoint.

[5] = test system: patients with advanced or metastatic solid tumors; assay: Phase 1 study: dose-limiting toxicities and maximum tolerated dose; type: in vivo
Method: The highest non-severely toxic dose was derived from a dog toxicology study and was used to calculate a clinical starting dose of 10 mg/m^2, which corresponds to one-sixth of the human-equivalent dose. The maximum tolerated dose (MTD) of TAS4464 was investigated using an accelerated titration design. Initially, the starting TAS4464 dose was 10 mg/m^2 and was followed by an initial accelerated stage (i.e., weekly dosing phase) with 100% dose-step increments (level 1: 10 mg/m^2, level 2: 20 mg/m^2, level 3: 40 mg/m^2, and level 4: 56 mg/m^2). The 100% dose-step increments continued until the occurrence of a grade ≥ 2 drug-related toxicity within Cycle 1; dose-limiting toxicity (DLT) within Cycle 1; the next dose level reaching 60 mg/m^2; or any safety concerns. Thereafter, 40% increments were employed in the standard stage.
In the standard stage, three to six patients were to be enrolled, and the dose was escalated in 40% increments if none of the first three patients experienced a DLT. If one patient experienced a DLT, three additional patients were to be enrolled at the same dose level. If two of three or two of six patients experienced a DLT, the dose escalation was to be ceased. […] Additionally, DLT criteria regarding abnormal liver function and discontinuation criteria for study drug administration were added. The TAS4464 dose level for Day 1 of Cycle 1 was then set to 40 mg/m^2 (level 3).
The primary objective of the study was to investigate DLTs. Treatment-related adverse events (AEs) during the lead-in period and Cycle 1 were included in the assessment of DLT, which was defined as follows: 1) grade 4 neutropenia lasting >7 days or neutropenia requiring treatment; 2) grade 4 thrombocytopenia or thrombocytopenia requiring blood transfusion; 3) febrile neutropenia; 4) grade ≥ 3 nausea, vomiting, or diarrhea lasting >48 h and uncontrolled by treatment; 5) grade ≥ 3 aspartate aminotransferase (AST) increase or alanine aminotransferase (ALT) increase lasting ≥3 days; or 6) any other grade ≥ 3 non-hematologic toxicity.

dog = test system: dog; parameters: method as in unpublished data; conditions: TAS4464 without a N,N-dimethylacetamide group; ref unpublished data; cited from earlier work
tumor cell lines = conditions: cited from earlier work
[6] = test system: p27^Kip1 protein expression; assay: p27^Kip1 immunohistochemistry in biopsy tumor specimens; type: in vivo, human; conditions: Day 2 of Cycle 1, three patients; data not shown
Method: as §1

[7] = test system: hematologic and solid tumor xenograft models; conditions: cited from earlier work

For `CCOc1cccc(F)c1C#Cc1cn([C@@H]2O[C@H](CNS(N)(=O)=O)[C@@H](O)[C@H]2O)c2ncnc(N)c12` [TAS4464], the “expression levels of the 10 cytokines in peripheral blood” value ([1]; five patients, weekly dosing with lead-in period cohort) is given as “no changes in the expression levels”, the “peak expression of IL-1β, IFNγ, IL-12p40, IL-12p70, IL-17A, IL-1α and IL-2 versus baseline” value ([1]; one patient, weekly dosing with lead-in level 3, Day 3 of Cycle 1) is given as “more than four times higher than at baseline” and the “inhibitory effects in enzyme assays” value (NAE) is given as “greater inhibitory effects than MLN4924”. The “abnormal liver function tests” value [2] was “Abnormal liver function tests were also observed”, the “mechanism of antitumor activity” value [3] was “inhibition of nuclear factor κB (NFκB) activation” and the “cullin-NEDD8 complex measurements in PBMC versus baseline” value ([4]; Day 1 of Cycle 1, no dose-dependency) was “lower than those at baseline in all patients”. For the same compound, the “cullin-NEDD8 complex measurements in PBMC versus baseline” value ([4]; Day 2 of Cycle 1, dose dependency not observed) was “lower than those at baseline, with the exception of two patients”, the “mean and individual CL and Vdss by OATP1B1 phenotype” value (OATP1B1) was “no obvious differences were observed” and the MTD ([5]; weekly dosing regimen) was “could not be determined”. The “DLT incidence (grade 3 ALT increased and grade 3 AST increased)” value ([5]; weekly dosing with lead-in period, dose level 4 (56 mg/m^2)) was 1/5, the “DLT incidence (grade 4 ALT increased)” value ([5]; weekly dosing, dose level 4 (56 mg/m^2), DLT-evaluable population) was 1/5 and one of five patients and the toxic liver findings (dog) was “toxic liver findings were not observed”. The “inhibitory effects in cells” value (tumor cell lines; compared with MLN4924) was “greater inhibitory effects than MLN4924”, the “time course of antiproliferative effects” value (tumor cell lines; dose- and time-dependent increase) was “plateauing after 24 h” and the “expression of p27^Kip1 in tumor specimens versus baseline” value [6] was “almost unchanged or decreased”. For the same compound, the antitumor effects ([7]; several hematologic and solid tumor xenograft models) was “promising antitumor effects” and the weight loss ([7]; xenograft models) was “without notable weight loss”.
